Assay results taken from PubChem BioAssay AID226 (DTP/NCI, 2004).
Several values for one entry are separate records, joined by “and”; a condition that tells them apart may be missing. Equal entries are not always repeated. Inconclusive results and toxic doses are left out.

Tested on: B6C3F1 mice, intracerebral ependymoblastoma, median survival T/C
Experiment: NCI In Vivo Anticancer Drug Screen. Data for tumor model Ependymoblastoma (intracerebral) in B6C3F1 mice
Conditions: endpoint: median survival time, higher = longer survival
Method: The antitumor activity of compounds was measured in mice bearing transplantable tumors. Survival or tumor size were measured and the results are expressed as the measurement made in the treated group (T) divided by the measurement made in the vehicle treated control group (C). The tumor model used in this assay is Ependymoblastoma (intracerebral) in B6C3F1 mice

[1] = dose: 12.5 mg/kg/injection, schedule: Q01DX005 (ip), vehicle: saline with Tween-80
[2] = dose: 32.0 mg/kg/injection, schedule: Q01DX005 (ip), vehicle: Klucel (hydroxypropylcellulose) (HPC)
[3] = dose: 64.0 mg/kg/injection, schedule: Q01DX005 (ip), vehicle: Klucel (hydroxypropylcellulose) (HPC)
[4] = dose: 8.0 mg/kg/injection, schedule: Q01DX005 (ip), vehicle: Klucel (hydroxypropylcellulose) (HPC)
[5] = dose: 16.0 mg/kg/injection, schedule: Q01DX005 (ip), vehicle: Klucel (hydroxypropylcellulose) (HPC)
[6] = dose: 128.0 mg/kg/injection, schedule: Q01DX005 (ip), vehicle: Klucel (hydroxypropylcellulose) (HPC)
[7] = dose: 256.0 mg/kg/injection, schedule: Q01DX005 (ip), vehicle: Klucel (hydroxypropylcellulose) (HPC)
[8] = dose: 512.0 mg/kg/injection, schedule: Q01DX005 (ip), vehicle: Klucel (hydroxypropylcellulose) (HPC)
[9] = dose: 25.0 mg/kg/injection, schedule: Q01DX005 (ip), vehicle: saline with Tween-80
[10] = dose: 50.0 mg/kg/injection, schedule: Q01DX005 (ip), vehicle: saline with Tween-80
[11] = dose: 16.0 mg/kg/injection, schedule: Q01DX005 (ip), vehicle: saline
[12] = dose: 32.0 mg/kg/injection, schedule: Q01DX005 (ip), vehicle: saline
[13] = dose: 64.0 mg/kg/injection, schedule: Q01DX005 (ip), vehicle: saline
[14] = dose: 256.0 mg/kg/injection, schedule: Q01DX005 (ip), vehicle: saline
[15] = dose: 1024.0 mg/kg/injection, schedule: Q01DX005 (ip), vehicle: Klucel (hydroxypropylcellulose) (HPC)
[16] = dose: 100.0 mg/kg/injection, schedule: Q01DX005 (ip), vehicle: saline with Tween-80
[17] = dose: 4.0 mg/kg/injection, schedule: Q01DX005 (ip), vehicle: saline

## COc1cc([C@@H]2c3cc4c(cc3[C@@H](OC3OC5CO[C@@H](c6cccs6)OC5C(O)C3O)[C@H]3COC(=O)[C@H]23)OCO4)cc(OC)c1O (some centres not stated)
dose: 0.25 mg/kg/injection, schedule: Q01DX005 (ip), vehicle: saline
  T/C: 103 % of control
dose: 0.5 mg/kg/injection, schedule: Q01DX005 (ip), vehicle: saline
  T/C: 90 % of control
dose: 1.0 mg/kg/injection, schedule: Q12HX006 (ip), vehicle: saline
  T/C: 92 % of control
dose: 2.0 mg/kg/injection, schedule: Q01DX005 (ip), vehicle: saline
  T/C: 118 % of control
dose: 2.0 mg/kg/injection, schedule: Q01DX005 (oral), vehicle: saline
  T/C: 122 % of control
dose: 2.0 mg/kg/injection, schedule: Q12HX002 (ip), vehicle: saline
  T/C: 93 % of control
dose: 2.0 mg/kg/injection, schedule: Q12HX006 (ip), vehicle: saline
  T/C: 119 % of control
dose: 4.0 mg/kg/injection, schedule: Q01DX001 (ip), vehicle: saline
  T/C: 100 % of control and 105 % of control
dose: 4.0 mg/kg/injection, schedule: Q01DX005 (oral), vehicle: saline
  T/C: 124 % of control
dose: 4.0 mg/kg/injection, schedule: Q12HX002 (ip), vehicle: saline
  T/C: 93 % of control
dose: 4.0 mg/kg/injection, schedule: Q12HX006 (ip), vehicle: saline
  T/C: 119 % of control
dose: 8.0 mg/kg/injection, schedule: Q01DX001 (ip), vehicle: saline
  T/C: 110 % of control and 111 % of control and 118 % of control
dose: 8.0 mg/kg/injection, schedule: Q01DX005 (oral), vehicle: saline
  T/C: 113 % of control
dose: 8.0 mg/kg/injection, schedule: Q12HX002 (ip), vehicle: saline
  T/C: 90 % of control
dose: 8.0 mg/kg/injection, schedule: Q12HX006 (ip), vehicle: saline
  T/C: 122 % of control
dose: 16.0 mg/kg/injection, schedule: Q01DX001 (ip), vehicle: saline
  T/C: 112 % of control and 115 % of control and 118 % of control
dose: 16.0 mg/kg/injection, schedule: Q01DX001 (oral), vehicle: saline
  T/C: 94 % of control and 101 % of control
dose: 16.0 mg/kg/injection, schedule: Q12HX002 (ip), vehicle: saline
  T/C: 93 % of control
dose: 32.0 mg/kg/injection, schedule: Q01DX001 (ip), vehicle: saline
  T/C: 104 % of control and 109 % of control and 117 % of control
dose: 32.0 mg/kg/injection, schedule: Q01DX001 (oral), vehicle: saline
  T/C: 109 % of control and 110 % of control (2×)
dose: 64.0 mg/kg/injection, schedule: Q01DX001 (oral), vehicle: saline
  T/C: 104 % of control and 109 % of control and 115 % of control
dose: 128.0 mg/kg/injection, schedule: Q01DX001 (oral), vehicle: saline
  T/C: 97 % of control and 109 % of control

## COc1ccc2c(c1OC(C)=O)-c1cc(O)cc3c1C(C2)N(C(=O)CN(CCCl)CCCl)CC3 (configuration not stated)
dose: 3.12 mg/kg/injection, schedule: Q01DX005 (ip), vehicle: saline with Tween-80
  T/C: 96 % of control
dose: 6.25 mg/kg/injection, schedule: Q01DX005 (ip), vehicle: saline with Tween-80
  T/C: 102 % of control
[1]
  T/C: 105 % of control

## NC(CSC(c1ccccc1)(c1ccccc1)c1ccccc1)C(=O)O (configuration not stated)
[2]
  T/C: 107 % of control
[3]
  T/C: 107 % of control
dose: 512.0 mg/kg/injection, schedule: Q01DX001 (ip), vehicle: Klucel (hydroxypropylcellulose) (HPC)
  T/C: 108 % of control
dose: 516.0 mg/kg/injection, schedule: Q01DX001 (ip), vehicle: Klucel (hydroxypropylcellulose) (HPC)
  T/C: 86 % of control

## CCC(=O)O[C@H]1CC[C@H]2[C@@H]3CCC4=CC(=O)CC[C@]4(C)[C@H]3CC[C@]12C
[4]
  T/C: 97 % of control and 100 % of control
[5]
  T/C: 101 % of control and 87 % of control
[2]
  T/C: 101 % of control
[3]
  T/C: 106 % of control
[6]
  T/C: 102 % of control and 87 % of control
[7]
  T/C: 95 % of control
[8]
  T/C: 95 % of control and 86 % of control

## Nc1nc(=S)c2ncn(C3OC(COC(=O)c4ccccc4)C(OC(=O)c4ccccc4)C3OC(=O)c3ccccc3)c2[nH]1 (configuration not stated)
[1]
  T/C: 100 % of control
[9]
  T/C: 100 % of control
[10]
  T/C: 105 % of control

## COc1cc2cc3c4cc(OC)c(OC)cc4cc[n+]3c(C)c2cc1OC (tested in a mixture with another compound)
[11]
  T/C: 94 % of control and 98 % of control and 111 % of control
[12]
  T/C: 100 % of control (2×) and 120 % of control
[13]
  T/C: 102 % of control and 105 % of control and 118 % of control
dose: 128.0 mg/kg/injection, schedule: Q01DX005 (ip), vehicle: saline
  T/C: 104 % of control and 109 % of control
[14]
  T/C: 106 % of control

## Cc1c[nH]c(=O)[nH]c1=O
[3]
  T/C: 104 % of control
[6]
  T/C: 92 % of control
[7]
  T/C: 99 % of control
[8]
  T/C: 95 % of control
[15]
  T/C: 95 % of control

## CN(C)C(=O)N(CCCl)N=O
dose: 5.0 mg/kg/injection, schedule: Q01DX001 (ip), vehicle: DMSO
  T/C: 106 % of control
dose: 8.3 mg/kg/injection, schedule: Q01DX001 (ip), vehicle: DMSO
  T/C: 112 % of control
dose: 12.5 mg/kg/injection, schedule: Q01DX001 (ip), vehicle: water
  T/C: 188 % of control
dose: 23.0 mg/kg/injection, schedule: Q01DX001 (ip), vehicle: DMSO
  T/C: 366 % of control
dose: 25.0 mg/kg/injection, schedule: Q01DX001 (ip), vehicle: water
  T/C: 332 % of control
dose: 38.4 mg/kg/injection, schedule: Q01DX001 (ip), vehicle: DMSO
  T/C: 365 % of control

## COC(=O)c1cccc(N=NN(C)C)c1
dose: 8.0 mg/kg/injection, schedule: Q01DX005 (ip), vehicle: saline + alcohol
  T/C: 98 % of control
dose: 16.0 mg/kg/injection, schedule: Q01DX005 (ip), vehicle: saline + alcohol
  T/C: 108 % of control
dose: 32.0 mg/kg/injection, schedule: Q01DX005 (ip), vehicle: saline + alcohol
  T/C: 123 % of control
[16]
  T/C: 114 % of control
dose: 128.0 mg/kg/injection, schedule: Q01DX005 (ip), vehicle: saline + alcohol
  T/C: 162 % of control

## CN(C)CC(=O)c1ccc(O)c(O)c1
dose: 100.0 mg/kg/injection, schedule: Q01DX005 (ip), vehicle: saline
  T/C: 100 % of control
dose: 200.0 mg/kg/injection, schedule: Q01DX005 (ip), vehicle: saline
  T/C: 94 % of control
dose: 400.0 mg/kg/injection, schedule: Q01DX005 (ip), vehicle: saline
  T/C: 106 % of control
dose: 800.0 mg/kg/injection, schedule: Q01DX005 (ip), vehicle: saline
  T/C: 108 % of control

## Nc1nc([Se])c2ncn(C3OC(CO)C(O)C3O)c2n1 (configuration not stated)
dose: 4.0 mg/kg/injection, schedule: Q01DX005 (ip), vehicle: saline with Tween-80
  T/C: 113 % of control
[17]
  T/C: 102 % of control
[4]
  T/C: 106 % of control
dose: 8.0 mg/kg/injection, schedule: Q01DX005 (ip), vehicle: saline with Tween-80
  T/C: 109 % of control
dose: 8.0 mg/kg/injection, schedule: Q01DX005 (ip), vehicle: saline
  T/C: 95 % of control and 105 % of control and 114 % of control
[5]
  T/C: 106 % of control
[11]
  T/C: 102 % of control and 108 % of control
[2]
  T/C: 106 % of control
[12]
  T/C: 116 % of control and 121 % of control

## Cc1cnc(/C=N\NC(N)=S)c2cccc(N)c12
[1]
  T/C: 100 % of control
[9]
  T/C: 103 % of control
[10]
  T/C: 104 % of control
[16]
  T/C: 102 % of control

## CCOC(=O)CNC(=O)CCCCSc1ncnc2nc[nH]c12
[17]
  T/C: 106 % of control
dose: 16.0 mg/kg/injection, schedule: Q01DX001 (oral), vehicle: Klucel (hydroxypropylcellulose) (HPC)
  T/C: 95 % of control
[5]
  T/C: 100 % of control and 105 % of control
[11]
  T/C: 95 % of control and 101 % of control
[2]
  T/C: 96 % of control
dose: 64.0 mg/kg/injection, schedule: Q01DX001 (oral), vehicle: Klucel (hydroxypropylcellulose) (HPC)
  T/C: 92 % of control
[3]
  T/C: 95 % of control and 104 % of control and 109 % of control
[13]
  T/C: 96 % of control and 109 % of control
[6]
  T/C: 98 % of control
dose: 256.0 mg/kg/injection, schedule: Q01DX001 (oral), vehicle: Klucel (hydroxypropylcellulose) (HPC)
  T/C: 105 % of control
[7]
  T/C: 102 % of control and 108 % of control
[14]
  T/C: 105 % of control and 112 % of control
[8]
  T/C: 96 % of control
[15]
  T/C: 100 % of control and 119 % of control and 121 % of control
dose: 1024.0 mg/kg/injection, schedule: Q01DX005 (ip), vehicle: saline
  T/C: 111 % of control and 124 % of control
